The values below come from patent US10265330B2, “Pharmaceutical compositions and treatment of mastitis” (BAYER ANIMAL HEALTH GMBH, priority 2012, dated 2019).

Assay [1] concerns Staphylococcus aureus Newbould 305 (ATCC 29740). Nature of the assay: S. aureus mouse mastitis model (MMM), intramammary treatment. Format: in vivo, lactating CD-1 mice. Conditions: for Median CFU log10: glands harvested 18 h after inoculation. As for the experimental part:
The mice were treated intramammarily (IMAM) with enrofloxacin, fosfomycin and a combination of enrofloxacin and fosfomycin as detailed in Table 1 four hours after inoculation. Each treatment group contained at least 3 mice (6 glands). Fourteen hours later (18 hours after inoculation) mice were sacrificed, mammary glands were harvested and the CFU content evaluated by plating 10-fold serial dilutions of mammary gland homogenates. The CFU content was expressed as log10 count. The detection limit was 200 CFU/g of gland. Glands with less than 200 CFU/g were regarded as cleared of S. aureus (see Table 1).
For each treatment group median log10 reductions of CFU were determined by subtracting the median log10 CFU value of the respective group from the median log10 CFU value of the untreated control group.

Another assay relates to S. aureus. Format: cell-based, Staphylococcus aureus. Conditions: single compound. An excerpt: (§1) The mutant prevention concentration (MPC) is the drug concentration that blocks the growth of the least susceptible, single-step mutant. Above this concentration, cell growth requires the presence of two or more resistance mutations. Since two concurrent mutations are expected to arise rarely, resistance is expected to develop rarely when drug concentrations are kept above the MPC. For further information regarding the MPC, it is by way of example referred to Drlica, K. (2003). The mutant selection window and antimicrobial resistance. Journal of Antimicrobial Chemotherapy, 52(1), 11-17; and to Blondeau, J. M. (2009). New concepts in antimicrobial susceptibility testing: the mutant prevention concentration and mutant selection window approach. Veterinary dermatology, 20(5-6), 383-396.

The test system of a further assay is E. coli. Format: cell-based, Escherichia coli. Conditions: single compound.
Description: as §1

A further assay has as its system Staphylococcus aureus. Nature of the assay: Field trial, dairy cattle with subclinical mastitis. Format: in vivo. Conditions: 400 mg cefazolin and/or 1000 mg fosfomycin per quarter, six times at 12 h interval; for Cure rate of S. aureus infection / Cure rate of S. aureus infection (cured quarters/treated quarters): paraffin based ointment, milk samples 3 and 4 weeks after treatment. As for the experimental part:
In another field trial, dairy cattle with subclinical mastitis, i.e. persistent, chronic udder infections caused by Staphylococcus aureus, were treated with either cefazolin, fosfomycin or a combination of both compounds. […] The affected quarters were treated with this ointment six consecutive times with an interval of 12 hours between each application. […] Following treatment, the level of udder inflammation, as measured by the Somatic Cell Count in the milk samples post treatment, was lower in the udders treated with the cefazolin-fosfomycin combination (46% of milk samples with a SCC lower than 300,000 cells/mL) than in udders treated with cefazolin alone (30% of milk samples with a SCC lower than 300,000 cells/mL) or with fosfomycin alone (24% of milk samples with a SCC lower than 300,000 cells/mL).

Assay [2] has as its system Streptococus uberis, Staphylococus aureus, Escherichia coli, other streptococci and mixed infections. Nature of the assay: Field study, dairy cattle with clinical mastitis. Format: in vivo. Conditions: 400 mg cefazolin and/or 1000 mg fosfomycin per quarter, paraffin based ointment, three times at 24 h interval; milk samples 1-3 weeks after treatment. As to the method:
In a first field-study, dairy cattle with clinical mastitis were treated under field conditions with either cefazolin, fosfomycin or a combination of both compounds. […] The diseased quarters were treated with this ointment three consecutive times with an interval of 24 hours between each application. When a milk sample was taken from the diseased udder quarters before the treatment for the diagnosis of mastitis infection, pathogenic bacteria typical of clinical mastitis were isolated, i.e. Streptococus uberis, Staphylococus aureus, Escherichia coli, other streptococci and mixed infections of the aforementioned species. […] Diseased udder quarters were considered cured when the clinical symptoms of mastitis had disappeared within one week without requiring a new antibiotic treatment and when the causative pathogenic bacterium, found in the diagnostic milk sample shortly before treatment, could not be isolated from any of the milk samples taken from one to three weeks following treatment. The cure rate of mastitis infection was higher in the udder quarters treated with the combination ointment (cefazolin together with fosfomycin), i.e. 17/38 (45%), than in the quarters treated with the ointment containing cefazolin alone ( 11/35, 31%) or fosfomycin alone ( 13/37, 35%).

The mark [3] stands for this setting: dose 100 μg IMAM, listed as enrofloxacin.

`CC[C@@H]1CCN[C@H](C(=O)N[C@@H]([C@H]2O[C@H](SC)[C@H](O)[C@@H](O)[C@H]2O)[C@H](C)Cl)C1` [pirlimycin]: in assay [1] (dose 10 microgram IMAM), the “Cleared glands % (less than 200 CFU/g)” value is reported as “does not eliminate the infection” and the “log10 CFU reduction (median, vs untreated control)” value (“log10 CFU reduction” for short) worked out at 3.3 log10. Besides, in the assay on S. aureus, the “MPC against S. aureus” value worked out at 2 µg/mL.

Take `Cc1nnc(SCC2=C(C(=O)O)N3C(=O)[C@@H](NC(=O)Cn4cnnn4)[C@H]3SC2)s1` [cefazolin]: the “MPC against E. coli” value with E. coli stood at 64 µg/mL. Moreover, in assay [1] (dose 100 μg IMAM), the “Cleared glands % (less than 200 CFU/g)” value is “does not eliminate the infection” and the “log10 CFU reduction” value worked out at 5.1 log10. Besides, in assay [1] (dose 50 microgram IMAM), the “Cleared glands % (less than 200 CFU/g)” value is given as “does not eliminate the infection” and the “log10 CFU reduction” value is reported as 4.5 log10. Moreover, in the assay on Staphylococcus aureus, the “Cure rate of S. aureus infection” value worked out at 46%; the “Cure rate of S. aureus infection (cured quarters/treated quarters)” value is 20/43; the “Cured quarters with SCC returned to normal (lower than 300,000 cells per mL)” value is on record as 23%; the “Cured quarters with SCC returned to normal (lower than 300,000 cells per mL), quarters/treated quarters” value is 10/43. Also, the “Milk samples post treatment with a SCC lower than 300,000 cells/mL” value with Staphylococcus aureus is given as 30%. In assay [2], the “Cure rate of mastitis infection” value came out at 31% and the “Cure rate of mastitis infection (cured quarters/treated quarters)” value is given as 11/35. Also, the “MPC against S. aureus” value with S. aureus stood at 1.25 µg/mL.

For the molecule `CC1(C)S[C@@H]2[C@H](NC(=O)[C@H](N)c3ccc(O)cc3)C(=O)N2[C@H]1C(=O)O` [amoxicillin], in assay [1] (dose 100 μg IMAM), the “Cleared glands % (less than 200 CFU/g)” value is reported as “does not eliminate the infection” and the “log10 CFU reduction” value was 1.6 log10.

For `CCN1CCN(c2cc3c(cc2F)c(=O)c(C(=O)O)cn3C2CC2)CC1` [Enrofloxacin, enrofloxacin], the “Cleared glands % (less than 200 CFU/g)” value in assay [1] (dose 100 μg IMAM) is 0%; in assay [1] (setting [3]), “does not eliminate the infection”. In addition, the “log10 CFU reduction” value in assay [1] (dose 100 μg IMAM) came out at 1.41 log10; in assay [1] (setting [3]), 1.4 log10. In assay [1] (dose 100 μg IMAM 4 h after inoculation), the “Median CFU log10” value is 6.8 CFU log10. Further, the “MPC against S. aureus” value with S. aureus was determined as 3 µg/mL.

Turning to `C[C@@H]1O[C@@H]1P(=O)(O)O` [Fosfomycin, [(2R,3S)-3-methyloxiran-2-yl]phosphonic acid], the “MPC against E. coli” value with E. coli stood at 200 µg/mL. In addition, in assay [1] (dose 100 μg IMAM), the “Cleared glands % (less than 200 CFU/g)” value is given as “does not eliminate the infection” and the “log10 CFU reduction” value is reported as 2.0 log10. Further, in assay [1] (dose 500 μg IMAM), the “Cleared glands % (less than 200 CFU/g)” value is 0% and the “log10 CFU reduction” value is reported as 3.3 log10. Moreover, in assay [1] (dose 500 μg IMAM 4 h after inoculation), the “Median CFU log10” value was 5.0 CFU log10. In assay [1] (dose 500 μg IMAM, listed as fosfomycin), the “Cleared glands % (less than 200 CFU/g)” value is on record as “does not eliminate the infection”. Also, in assay [1] (dose 1000 μg IMAM), the “Cleared glands % (less than 200 CFU/g)” value amounted to 0% and the “log10 CFU reduction” value turned out to be 5.1 log10. Moreover, in assay [1] (dose 1000 μg IMAM 4 h after inoculation), the “Median CFU log10” value stood at 3.2 CFU log10. Moreover, the “Cleared glands % (less than 200 CFU/g)” value in assay [1] (dose 1000 μg IMAM, listed as fosfomycin) is listed as “does not eliminate the infection”. For the same molecule, in the assay with Staphylococcus aureus, the “Cure rate of S. aureus infection” value worked out at 57%; the “Cure rate of S. aureus infection (cured quarters/treated quarters)” value is on record as 27/47; the “Cured quarters with SCC returned to normal (lower than 300,000 cells per mL)” value is listed as 19%; the “Cured quarters with SCC returned to normal (lower than 300,000 cells per mL), quarters/treated quarters” value is reported as 9/47. For the same molecule, the “Milk samples post treatment with a SCC lower than 300,000 cells/mL” value in the assay with Staphylococcus aureus is listed as 24%. Further, in assay [2], the “Cure rate of mastitis infection” value turned out to be 35% and the “Cure rate of mastitis infection (cured quarters/treated quarters)” value is recorded as 13/37. Also, the “MPC against S. aureus” value in the assay on S. aureus amounted to 1500 µg/mL.
